The target of test [1] is T1, C-C chemokine receptor type 4 (Homo sapiens, UniProt P51679).
T1 sequence (P51679 whole entry): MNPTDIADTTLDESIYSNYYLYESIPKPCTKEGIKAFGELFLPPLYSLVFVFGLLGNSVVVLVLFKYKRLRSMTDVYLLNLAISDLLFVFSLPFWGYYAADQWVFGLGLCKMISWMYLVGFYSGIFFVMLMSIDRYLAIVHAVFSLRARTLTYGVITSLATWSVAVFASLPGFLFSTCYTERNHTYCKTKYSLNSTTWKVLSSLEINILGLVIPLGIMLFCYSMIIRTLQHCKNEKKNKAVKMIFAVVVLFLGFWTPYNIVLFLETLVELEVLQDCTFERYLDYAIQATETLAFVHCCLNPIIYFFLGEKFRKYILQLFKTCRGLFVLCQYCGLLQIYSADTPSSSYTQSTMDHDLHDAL
The test is described as follows: Inhibition of [125I]MDC binding to recombinant human C-C chemokine receptor type 4 (CCR4) expressed in murine pre-B cells. The test is classed as cell-based.

Test [2] concerns the target T1, C-C chemokine receptor type 4. The experiment in a line: Inhibitory activity against [125I]MDC binding to human Chemokine receptor type 4 expressed in murine pre-B cells. The test is classed as cell-based.
Test [3] addresses T2, C-C chemokine receptor type 4 (Homo sapiens) (UniProt P51679).
T2 sequence (whole entry): T1 sequence (P51679 whole entry)
The test is described as follows: Dose required to inhibit TARC-stimulated chemotaxis in CCR4+ Th2 cell lines derived from primary human T-cells. The class given is functional, cell-based.

Molecules are shown by their SMILES. “And” between values parts separate entries of the source, which are not always exact repeats. Equal values may be shown once.

The record followed here is ChEMBL document CHEMBL1148225, “Discovery and SAR of trisubstituted thiazolidinones as CCR4 antagonists” (Bioorg Med Chem Lett, 2004).

For the compound `O=C(C[C@H]1S[C@H](c2ccc(Cl)cc2Cl)N(CC(=O)NCCCN2CCOCC2)C1=O)NCc1csc2ccccc12`, the IC50 in test [1] came to 0.34 µM.
The same measure, in the same setting: the result for `O=C(C[C@H]1S[C@H](c2ccc(Cl)cc2)N(CC(=O)NCCCN2CCOCC2)C1=O)NCc1cccc2ccccc12` reads 0.83 µM; that for `C[C@@H](NC(=O)C[C@H]1S[C@H](c2ccc(Cl)cc2Cl)N(CC(=O)NCCCN2CCOCC2)C1=O)c1ccccc1` (stereo in doubt; 89), 0.25 µM; that for `Cc1ccc([C@H]2S[C@H](CC(=O)NCc3cccc4ccccc34)C(=O)N2CC(=O)NCCCN2CCOCC2)c(C)c1`, 11 µM.
Still for that read-out and setting: the result for `Cc1c(Cl)cccc1CNC(=O)C[C@H]1S[C@H](c2ccc(Cl)cc2Cl)N(CC(=O)NCCCN2CCCCC2)C1=O` reads 0.14 µM; that for `O=C(C[C@H]1S[C@H](c2ccco2)N(CC(=O)NCCCN2CCOCC2)C1=O)NCc1cccc2ccccc12`, 29 µM.
On to `O=C(C[C@H]1S[C@H](c2ccccc2Cl)N(CC(=O)NCCCN2CCOCC2)C1=O)NCc1cccc2ccccc12`, for which the IC50 in test [1] was 11 µM.
Same read-out and setting: the result for `O=C(C[C@H]1S[C@H](c2ccc(Cl)cc2Cl)N(CC(=O)NCCCCN2CCOCC2)C1=O)NCc1cccc2ccccc12` reads 0.38 µM.
Still for that read-out and setting: the result for `O=C(C[C@H]1S[C@H](c2ccc(Cl)cc2Cl)N(CC(=O)NCCN2CCOCC2)C1=O)NCc1cccc2ccccc12` reads 3.5 µM; that for `O=C(C[C@H]1S[C@H](c2ccc(Cl)cc2Cl)N(CCC(=O)N2CCNCC2)C1=O)NCc1cccc2ccccc12`, 3.5 µM; that for `O=C(C[C@H]1S[C@H](c2ccncc2)N(CC(=O)NCCCN2CCOCC2)C1=O)NCc1cccc2ccccc12`, 34 µM.
As to `O=C(C[C@H]1S[C@H](c2ccc(Cl)cc2Cl)N(CC(=O)NCCCN2CCOCC2)C1=O)NCc1ccc(Cl)cc1Cl` (stereo in doubt; 72), in test [1], the IC50 worked out at 3 µM.
For the compound `O=C(CN1C(=O)[C@@H](CC(=O)Nc2nccs2)S[C@@H]1c1ccc(Cl)cc1Cl)NCCCN1CCOCC1`, the IC50 in test [1] came out at 11 µM.
On the same count and under the same terms, the result for `C[C@H](NC(=O)C[C@H]1S[C@H](c2ccc(Cl)cc2Cl)N(CC(=O)NCCCN2CCOCC2)C1=O)c1cccc2ccccc12` reads 8 µM; that for `O=C(C[C@H]1S[C@H](CCc2ccccc2)N(CC(=O)NCCCN2CCOCC2)C1=O)NCc1cccc2ccccc12`, 100 µM.
On to `O=C(CC1SC(c2ccc(Cl)cc2)N(CC(=O)NCCCN2CCOCC2)C1=O)NCc1cccc2ccccc12` (stereo unspecified), for which the half-inhibitory concentration (IC50) in test [1] is 2.4 µM and 0.83 µM.
Still for that read-out and setting: the result for `O=C(CN1C(=O)[C@@H](CC(=O)N[C@@H]2CCc3ccccc32)S[C@@H]1c1ccc(Cl)cc1Cl)NCCCN1CCOCC1` reads 2.9 µM; that for `O=C(C[C@H]1S[C@H](c2cccc(Cl)c2Cl)N(CC(=O)NCCCN2CCOCC2)C1=O)NCc1cccc2ccccc12`, 18 µM.
Still for that read-out and setting: the result for `CN1CCC(NC(=O)CN2C(=O)[C@@H](CC(=O)NCc3cccc4ccccc34)S[C@@H]2c2ccc(Cl)cc2Cl)CC1` reads 8 µM; that for `O=C(C[C@H]1S[C@H](c2ccc(Cl)cc2Cl)N(CC(=O)NCCCN2CCOCC2)C1=O)NCc1ccc(Cl)c(C(F)(F)F)c1`, 6 µM; that for `O=C(CN1C(=O)[C@@H](CC(=O)NC2CCCc3ccccc32)S[C@@H]1c1ccc(Cl)cc1Cl)NCCCN1CCOCC1` (stereo partly specified), 6.7 µM.
For `O=C(C[C@H]1S[C@H](c2ccc(C(F)(F)F)cc2C(F)(F)F)N(CC(=O)NCCCN2CCOCC2)C1=O)NCc1cccc2ccccc12`, in test [2], the IC50 was greater than 100 µM.
Regarding `O=C(C[C@H]1S[C@H](c2ccc(Cl)cc2Cl)N(CC(=O)N2CCNCC2)C1=O)NCc1cccc2ccccc12`, in test [1], the IC50 was 1.4 µM.
As to `Cc1cccc(CNC(=O)C[C@H]2S[C@H](c3ccc(Cl)cc3Cl)N(CC(=O)NCCCN3CCOCC3)C2=O)c1`, the IC50 in test [1] amounted to 2.3 µM.
Still for that read-out and setting: the result for `O=C(C[C@H]1S[C@H](c2ccc(Cl)cc2Cl)N(CCNS(=O)(=O)CCCN2CCOCC2)C1=O)NCc1cccc2ccccc12` reads 24 µM; that for `O=C(C[C@H]1S[C@H](c2ccc(Cl)cc2Cl)N(CC(=O)NCCCN2CCOCC2)C1=O)NCCc1ccc(Cl)c(Cl)c1`, 13 µM.
On the same count and under the same terms, the result for `O=C(CN1C(=O)[C@@H](CC(=O)NC(c2ccccc2)c2ccccc2)S[C@@H]1c1ccc(Cl)cc1Cl)NCCCN1CCOCC1` reads 6 µM.
For the compound `C[C@@H](NC(=O)C[C@H]1S[C@H](c2ccc(Cl)cc2Cl)N(CC(=O)NCCCN2CCCCC2)C1=O)c1cccc2ccccc12`, the IC50 in test [1] is 0.11 µM. Also, the ED50 in test [3] was determined as 0.3 µM.
`O=C(C[C@H]1S[C@H](c2ccc(Cl)cc2Cl)N(CC(=O)NCCCN2CCCCC2)C1=O)NCc1cccc2ccccc12`: the IC50 in test [1] was found to be 0.2 µM.
In the case of `O=C(C[C@H]1S[C@H](c2cccc(Cl)c2)N(CC(=O)NCCCN2CCOCC2)C1=O)NCc1cccc2ccccc12`, the IC50 in test [1] was 7 µM.
Same read-out and setting: the result for `O=C(C[C@H]1S[C@H](c2ccc(Cl)cc2Cl)N(CC(=O)NCCCN2CCOCC2)C1=O)NCc1cccc(-c2ccccc2)c1` reads 1.3 µM; that for `C[C@@H](NC(=O)C[C@H]1S[C@H](c2ccc(Cl)cc2Cl)N(CC(=O)NCCCN2CCOCC2)C1=O)c1cccc2ccccc12`, 0.25 µM.
The same measure, in the same setting: the result for `O=C(C[C@H]1S[C@@H](c2ccc(Cl)cc2)N(CC(=O)NCCCN2CCOCC2)C1=O)NCc1cccc2ccccc12` reads roughly 6 µM.
As for `O=C(C[C@H]1S[C@H](c2ccc(Cl)cc2Cl)N(CC(=O)NCCCN2CCOCC2)C1=O)NCc1cc(Cl)cc(Cl)c1`, in test [1], the IC50 came out at 1.5 µM.
Still for that read-out and setting: the result for `O=C(C[C@H]1S[C@H](c2ccc(F)cc2Cl)N(CC(=O)NCCCN2CCOCC2)C1=O)NCc1cccc2ccccc12` reads 1 µM; that for `O=C(C[C@H]1S[C@H](c2ccc(Cl)cc2Cl)N(CC(=O)NCCCN2CCOCC2)C1=O)NCc1ccco1`, 7 µM.
Still for that read-out and setting: the result for `O=C(C[C@H]1S[C@H](c2ccc(F)cc2)N(CC(=O)NCCCN2CCOCC2)C1=O)NCc1cccc2ccccc12` reads 4 µM; that for `CN(C)CCN1C(=O)[C@@H](CC(=O)NCc2cccc3ccccc23)S[C@@H]1c1ccc(Cl)cc1Cl`, 36 µM; that for `O=C(C[C@H]1S[C@H](c2cccc(C(F)(F)F)c2)N(CC(=O)NCCCN2CCOCC2)C1=O)NCc1cccc2ccccc12`, 12 µM.
As to `O=C(C[C@H]1S[C@H](Cc2ccccc2)N(CC(=O)NCCCN2CCOCC2)C1=O)NCc1cccc2ccccc12`, the IC50 in test [1] is greater than 100 µM.

Broadly, the IC50 is the concentration needed to halve the response being measured.
